As usually defined, the ED50 is the dose at which the effect has come halfway, by size or by number of responders.

The test system of assay [1] is SRS-A-induced contraction of guinea-pig ileum. The experiment in a line: Inhibition of SRS-A-induced contraction of isolated guinea-pig ileum. Also on record: species or system guinea-pig (male Hartley). Particulars: submaximal concentration of SRS-A (derived from guinea pig lung), incubation 20 minutes, 37° C., read-out: IC 50 (M), Ileum, Anti-SRS-A. On the procedure:
(§1) (1) Inhibition of SRS-A- and LTD4 -induced contraction of guinea-pig ileum and trachea
(§2) Methods: Male Hartley guinea-pigs, weighing 500 to 700 g were sacrificed by a blow on the head The ileum and tracheal strips prepared according to the method of Constantine (Constantine, J. W., J. Pharm Pharmacol., 17, 384 (1965)) were suspended with 1.0 g tension in an organ bath containing 10 ml of Tyrode solution equilibrated with a mixture of 95% O2 and 5% CO2 at 37° C. The tissues were equilibrated for 60 minutes; during this period the Tyrode solution was replaced every 15 minutes and the loading tension was adjusted to 1.0 g. The developed tension of the tissues was measured isometrically with a strain gauge transducer, and recorded on a Recticorder. Both the contractile response of the ileum to submaximal concentration of SRS-A (derived from guinea pig lung) and tracheal response to 10^-8 M LTD4 were recorded in the absence and then in the presence of various concentrations of test compounds. The incubation time of the compounds was 20 minutes.

Assay [2] concerns LTD4-induced contraction of guinea-pig trachea. The experiment in a line: Inhibition of LTD4-induced contraction of isolated guinea-pig trachea. More on the design: species or system guinea-pig (male Hartley). The following applies: 10^-8 M LTD4; for inhibition of the contractions induced by LTD4 (in words): isolated guinea pig trachea; for IC50: isolated guinea-pig trachea, incubation 20 minutes, 37° C., read-out: IC 50 (M), Trachea, Anti-LTD4. On the procedure: as §1, §2

For assay [3], the system named is LTD4-enhanced vascular permeability. Put plainly: Inhibition of LTD4-enhanced vascular permeability in guinea-pig. It counts as in vivo, guinea-pig (male Hartley). Particulars: for ED50: Cavia porcellus, po, 30 minutes before LTD4 injection (5 ng intradermal); for anti-leukotriene effect by oral route (in words) / inhibition of LTD4-enhanced vascular permeability (in words): p.o.; for inhibition of LTD4-enhanced vascular permeability (in words): 30 minutes before LTD4 injection. As to the method: (2) Inhibition of LTD4 -enhanced vascular permeability in guinea-pig
Method: Male Hartley quinea-pigs weighing 270 to 305 g, starved for 16 hours, were intradermally injected 5 ng LTD4 in a volume of 0.1 ml into two sites on the shaved back. In addition, 0.1 ml of vehicle was injected intradermally in each animal to see non-specific irritation. One ml of saline containing 1% Evans blue was intravenously injected 2 minutes before LTD4 injection. Animals were sacrificed 30 minutes after LTD4 injection. The leaked dye at the site of LTD4 or vehicle injection was extracted according to the method of Harada et al. (Harada, M. et al., J. Pharm. Pharmacol., 23, 218 (1971)) and measured photometrically at 620 nm. The LTD4 -induced skin reaction was expressed as a difference in the amount of dye between LTD4 and vehicle. Test compounds were orally administered 30 minutes before LTD4 injection.

For `CCCc1c(CSc2nnc(SCc3ccc(CCC(=O)O)cc3)s2)ccc(C(C)=O)c1O` [Example 46, 3-[p-[[[5-[(4-acetyl-3-hydroxy-2-propylbenzyl)thio]-1,3,4-thiadiazol-2-yl]thio]methyl]phenyl]propionic acid], the IC50 in assay [1] worked out at 3.1e-08 M.
Turning to `CCCc1c(CSc2nnc(SCCCC(=O)O)s2)ccc(C(C)=O)c1O` [Example 4, 4-[[5-[(4-acetyl-3-hydroxy-2-propylbenzyl)thio]-1,3,4-thiadiazol-2-yl]thio]butyric acid], in assay [1], the IC50 turned out to be 4.1e-09 M.
Same read-out and setting: next, `CCCc1c(CSc2nnc(SCCCCC(=O)O)s2)ccc(C(C)=O)c1O` [Example 11, 5-[[5-[(4-acetyl-3-hydroxy-2-propylbenzyl)thio]-1,3,4-thiadiazol-2-yl]thio]valeric acid]: 9.1e-09 M.
As to `CCCc1c(CSc2nnc(SCc3ccc(C(=O)O)cc3)s2)ccc(C(C)=O)c1O` [Example 37, p-[[5-[(4-acetyl-3-hydroxy-2-propylbenzyl)thio]-1,3,4-thiadiazol-2-yl]thiomethyl]benzoic acid], the IC50 in assay [1] is 3.6e-09 M. In assay [2], the “inhibition of the contractions induced by LTD4 (in words)” value (shortened to “inhibition of the contractions induced”) is on record as “potently inhibited” and the IC50 was determined as 1.1e-08 M. In addition, in assay [3], the ED50 was 7 mg/kg, the “anti-leukotriene effect by oral route (in words)” value is reported as “potent anti-leukotriene effect” and the “inhibition of LTD4-enhanced vascular permeability (in words)” value is given as “dose-dependently inhibited”.
As for `CCCc1c(CSc2nccc(O)n2)ccc(C(C)=O)c1O` [Example 14, 2-[(4-acetyl-3-hydroxy-2-propylbenzyl)thio]-4-hydroxypyrimidine], the IC50 in assay [1] was 5e-08 M.
Regarding `CCCc1c(CSc2nnc(SCCC[S+]([O-])CC(=O)O)s2)ccc(C(C)=O)c1O` (stereo not shown) [Example 35, [3-[[5-[(4-acetyl-3-hydroxy-2-propylbenzyl)thio]-1,3,4-thiadiazol-2-yl]thio]propylsulfinyl]acetic acid], the IC50 in assay [1] is 1.1e-08 M. In assay [2], the “inhibition of the contractions induced” value was “potently inhibited” and the IC50 came out at 7.8e-09 M.
`CCCc1c(CSc2nnc(SCCCCCC(=O)OCC)s2)ccc(C(C)=O)c1O` [Example 10, ethyl 6-[[5-[(4-acetyl-3-hydroxy-2-propylbenzyl)thio]-1,3,4-thiadiazol-2-yl]thio]hexanate]: in assay [1], the IC50 amounted to 5.1e-08 M.
With `CCCc1c(CSc2nnc(SCc3ccc(OC(C)C(=O)O)cc3)s2)ccc(C(C)=O)c1O` (stereo not shown) [Example 34, 2-[p-[[[5-[(4-acetyl-3-hydroxy-2-propylbenzyl)thio]-1,3,4-thiadiazol-2-yl]thio]methyl]phenoxy]propionic acid], in assay [3], the ED50 turned out to be 4.2 mg/kg.
For `CCCc1c(CSc2nnc(SCCCSCC(=O)O)s2)ccc(C(C)=O)c1O` [Example 32, [[3-[[5-[(4-acetyl-3-hydroxy-2-propylbenzyl)thio]-1,3,4-thiadiazol-2-yl]thio]propyl]thio]acetic acid], the IC50 in assay [1] worked out at 1.5e-10 M; in assay [2], 3e-09 M. The “inhibition of the contractions induced” value in assay [2] is “potently inhibited”.
Take `CCCc1c(CSc2nnc(SCC(=O)O)s2)ccc(C(C)=O)c1O` [Example 2, [[5-[(4-acetyl-3-hydroxy-2-propylbenzyl)thio]-1,3,4-thiadiazol-2-yl]thio]-acetic acid]: the IC50 in assay [1] is 4.2e-08 M. Also, in assay [2], the “inhibition of the contractions induced” value is listed as “potently inhibited” and the IC50 was determined as 4e-08 M. In assay [3], the ED50 was 11.3 mg/kg, the “anti-leukotriene effect by oral route (in words)” value is recorded as “potent anti-leukotriene effect” and the “inhibition of LTD4-enhanced vascular permeability (in words)” value is “dose-dependently inhibited”.
For `CCCc1c(CSc2nnc(NC(=O)C(=O)O)s2)ccc(C(C)=O)c1O` [Example 22, [5-[(4-acetyl-3-hydroxy-2-propylbenzyl)thio]-1,3,4-thiadiazol-2-yl]oxamidic acid], the IC50 in assay [1] is 2.2e-08 M.
In the case of `CCCc1c(CSc2nnc(SCCCS(=O)(=O)CC(=O)O)s2)ccc(C(C)=O)c1O` [Example 36, [3-[[5-[(4-acetyl-3-hydroxy-2-propylbenzyl)thio]-1,3,4-thiadiazol-2-yl]thio]propylsulfonyl]acetic acid], the figures for the IC50 in assay [1] and in assay [2] were 1.1e-09 M and 2.9e-09 M, respectively. Further, the “inhibition of the contractions induced” value in assay [2] is recorded as “potently inhibited”.
With `CCCc1c(CSc2snc(O)c2C(=O)O)ccc(C(C)=O)c1O` [Example 44, 5-[(4-acetyl-3-hydroxy-2-propylbenzyl)thio]-3-hydroxy-4-isothiazolecarboxylic acid], in assay [1], the IC50 was found to be 4.5e-08 M. Further, in assay [2], the “inhibition of the contractions induced” value is recorded as “potently inhibited” and the IC50 amounted to 1.9e-07 M.
On to `CCCc1c(CSc2nnc(NC(=O)CCC(=O)O)s2)ccc(C(C)=O)c1O` [Example 24, 4-[[5-[(4-acetyl-3-hydroxy-2-propylbenzyl)thio]-1,3,4-thiadiazol-2-yl]amino]-4-oxobutyric acid], for which, in assay [1], the IC50 worked out at 3.3e-09 M.
Consider `CCCc1c(CSc2nnc(SCCCCCCC(=O)O)s2)ccc(C(C)=O)c1O` [Example 13, 7-[[5-[(4-acetyl-3-hydroxy-2-propylbenzyl)thio]-1,3,4-thiadiazol-2-yl]thio]heptanoic acid], for which, in assay [1], the IC50 is 2.1e-08 M.
On to `CCCc1c(CSc2nnc(SCc3ccc(OCC(=O)O)cc3)s2)ccc(C(C)=O)c1O` [Example 33, [p-[[[5-[(4-acetyl-3-hydroxy-2-propylbenzyl)thio]-1,3,4-thiadiazol-2-yl]thio]methyl]phenoxy]acetic acid], for which, in assay [1], the IC50 was found to be 2.9e-10 M. In addition, in assay [2], the “inhibition of the contractions induced” value was “potently inhibited” and the IC50 is 5.4e-08 M.
On to `CCCc1c(CSc2nnc(SCCCCCC(=O)O)s2)ccc(C(C)=O)c1O` [Example 12, 6-[[5-[(4-acetyl-3-hydroxy-2-propylbenzyl)thio]-1,3,4-thiadiazol-2-yl]thio]hexanoic acid], for which the IC50 in assay [1] turned out to be 4e-09 M.
Take `CCCc1c(CSc2nnc(SCc3ccc(CSCC(=O)O)cc3)s2)ccc(C(C)=O)c1O` [Example 43, [[p-[[[5-[(4-acetyl-3-hydroxy-2-propylbenzyl)thio]-1,3,4-thiadiazol-2-yl]thio]methyl]benzyl]thio]acetic acid]: the IC50 in assay [1] came to 4.7e-09 M; in assay [2], 3.8e-09 M. Moreover, in assay [2], the “inhibition of the contractions induced” value was “potently inhibited”.

The record behind these values is patent publication US4933348A, “Heterocyclic compounds” (priority 1985, dated 1990).
